The Emax is the maximal effect, on the per cent scale that the assay sets. As a reminder, the EC50 is the midpoint of the concentration-response curve. Low values mean higher potency in that assay, high ones lower potency in that assay.

Bounds are passed on as bounds.

The first assay deals with T1, GluN2B glutamate receptors (Homo sapiens, UniProt Q05586+Q13224).
T1 construct: expressed in transfected cells; host or cells: mammalian cells (line not described for GluN2B)
T1 sequence (Q13224 27-1484, other chains not shown): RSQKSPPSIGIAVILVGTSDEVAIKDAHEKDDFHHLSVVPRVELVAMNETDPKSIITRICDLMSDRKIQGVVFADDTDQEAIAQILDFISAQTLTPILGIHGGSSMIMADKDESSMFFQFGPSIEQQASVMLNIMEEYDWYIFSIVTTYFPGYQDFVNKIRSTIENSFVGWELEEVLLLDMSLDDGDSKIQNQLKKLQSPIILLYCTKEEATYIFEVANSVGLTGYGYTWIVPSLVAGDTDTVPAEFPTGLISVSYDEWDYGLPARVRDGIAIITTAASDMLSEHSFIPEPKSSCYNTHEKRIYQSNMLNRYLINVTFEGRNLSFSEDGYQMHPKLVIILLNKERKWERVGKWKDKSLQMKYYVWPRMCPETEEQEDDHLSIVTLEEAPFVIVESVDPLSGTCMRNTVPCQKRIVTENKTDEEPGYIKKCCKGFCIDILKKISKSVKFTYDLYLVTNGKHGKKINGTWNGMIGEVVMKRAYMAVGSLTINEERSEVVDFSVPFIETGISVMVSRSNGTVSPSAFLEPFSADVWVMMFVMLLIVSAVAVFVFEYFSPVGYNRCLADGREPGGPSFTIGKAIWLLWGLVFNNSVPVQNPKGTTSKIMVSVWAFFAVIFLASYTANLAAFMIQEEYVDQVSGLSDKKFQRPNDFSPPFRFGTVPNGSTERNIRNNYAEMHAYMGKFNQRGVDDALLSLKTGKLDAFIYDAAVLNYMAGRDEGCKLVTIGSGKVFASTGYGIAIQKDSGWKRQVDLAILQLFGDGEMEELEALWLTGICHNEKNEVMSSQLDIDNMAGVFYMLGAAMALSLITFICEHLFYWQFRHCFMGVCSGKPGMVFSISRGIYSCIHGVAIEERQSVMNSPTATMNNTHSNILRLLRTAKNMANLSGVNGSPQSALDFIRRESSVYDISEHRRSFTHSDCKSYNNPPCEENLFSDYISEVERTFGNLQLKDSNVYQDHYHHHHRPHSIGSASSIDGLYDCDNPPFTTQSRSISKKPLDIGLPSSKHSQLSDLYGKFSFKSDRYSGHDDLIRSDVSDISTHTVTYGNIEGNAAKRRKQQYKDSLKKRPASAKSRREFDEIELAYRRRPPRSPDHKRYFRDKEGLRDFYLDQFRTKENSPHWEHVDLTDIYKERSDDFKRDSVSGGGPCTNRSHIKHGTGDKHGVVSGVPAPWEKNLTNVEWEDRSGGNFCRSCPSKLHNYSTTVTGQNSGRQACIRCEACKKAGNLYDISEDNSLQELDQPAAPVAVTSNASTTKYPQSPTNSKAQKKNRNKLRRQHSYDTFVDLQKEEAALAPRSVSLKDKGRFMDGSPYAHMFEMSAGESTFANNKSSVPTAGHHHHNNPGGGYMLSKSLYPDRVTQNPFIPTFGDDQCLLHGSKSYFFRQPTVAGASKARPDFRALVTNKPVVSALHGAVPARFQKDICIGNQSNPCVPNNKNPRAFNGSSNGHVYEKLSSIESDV
The assay is described as follows: Whole-cell patch clamp of mammalian cells (Ionworks Barracuda), positive allosteric modulation (PAM) of NMDA receptor, 2B. The note with it: % activation of current elicited with EC20 L-glutamate and 30 µM glycine. It counts as cell-based. The procedure:
(§1) The measurements were perfomed using Ion Works Barracuda platform following this procedure: • Electrophysiological Procedures: • a) Intracellular solution (mM): 50 mM CsCl, 90 mM CsF, 2 mM MgCl2, 5 mM EGTA, 10 mM HEPES. Adjust to pH 7.2 with CsOH. • b) Extracellular solution, HB-PS (composition in mM): NaCl, 137; KCl, 1.0; CaCl2, 5; HEPES, 10; Glucose, 10; pH adjusted to 7.4 with NaOH (refrigerated until use). • c) Holding potential: -70 mV, potential during agonist/PAM application: -40 mV. • Recording procedure: • a) Extracellular buffer will be loaded into the PPC plate wells (11 µL per well). Cell suspension will be pipetted into the wells (9 µL per well) of the PPC planar electrode. • b) Whole-cell recording configuration will be established via patch perforation with membrane currents recorded by on-board patch clamp amplifiers. • c) Two recordings (scans) will be performed. First, during pre-application of test article alone (duration of pre-application - 5 min) and second, during test articles and agonist (EC20 L-glutamate and 30 µM glycine) co-application to detect positive modulatory effects of the test article.
(§2) Test Article Administration: The first pre-application will consist of the addition of 20 µL of 2X concentrated test article solution and, second, of 20 µL of 1X concentrated test article and agonist at 10 µL/s (2 second total application time).
(§3) PAM concentration-response data will be fitted to an equation of the form: % Activation = % L−glutamate EC20 + {(%MAX−%L−glutamateEC20)/[1+(([Test]/; EC50))^N]}, [formula] where [Test] will be the concentration of PAM (test article), EC50 will be the concentration of PAM producing half-maximal activation, N will be the Hill coefficient, % L-glutamate EC20 will be the percentage of the current Elicited with L-glutamate EC20, % MAX is the percentage of the current activated with the highest dose of PAM co-admitted with L-glutamate EC20 and % Activation will be the percentage of the current elicited with L-glutamate EC10-30 at each PAM concentration.
(§4) The maximal amplitude of the evoked currents are measured and defined as Peak Current Amplitude (PCA).
For orientation: The patch-clamp technique gives a direct electrical read-out from membranes.
`C[C@H](CC[C@H](O)C(C)(C)C)[C@H]1CC[C@H]2[C@@H]3CC[C@H]4C[C@](O)(C(F)(F)F)CC[C@]4(C)[C@H]3CC[C@]12C` [Compound 2184] had a maximum response (Emax) of 258%. As for `C[C@H](CCC1(O)CCC(F)(F)CC1)[C@H]1CC[C@H]2[C@@H]3CC=C4C[C@](O)(C(F)(F)F)CC[C@]4(C)[C@H]3CC[C@]12C` [Compound 2392], the maximum response (Emax) came to 166%. Still for that read-out and setting: with `C[C@H](CCC(O)C(C)(C)C)[C@H]1CC[C@H]2[C@@H]3CC=C4C[C@](O)(C(F)(F)F)CC[C@]4(C)[C@H]3CC[C@]12C` (some centres unmarked) [Compound 2500] the figure was 300%; with `C[C@H](CC[C@](C)(O)C(F)(F)F)[C@H]1CC[C@H]2[C@@H]3CC=C4C[C@](O)(C(F)(F)F)CC[C@]4(C)[C@H]3CC[C@]12C` [Compound 3035], 611%; with `C[C@H](CC[C@@H](O)C(F)(F)F)[C@H]1CC[C@H]2[C@@H]3CC=C4C[C@](O)(C(F)(F)F)CC[C@]4(C)[C@H]3CC[C@]12C` [Compound 3149], 472%. Turning to `C[C@H](CC[C@@H](O)C(C)(C)C)[C@H]1CC[C@H]2[C@@H]3CC=C4C[C@](O)(C(F)(F)F)CC[C@]4(C)[C@H]3CC[C@]12C` [Compound 3382], the Emax is 461%. The same measure, in the same setting: with `C[C@H](CC[C@]1(O)CCOC1)[C@H]1CC[C@H]2[C@@H]3CC=C4C[C@](O)(C(F)(F)F)CC[C@]4(C)[C@H]3CC[C@]12C` [Compound 3496] the figure was 369%. The same measure, in the same setting: with `C[C@H](CC[C@H](O)C(C)(C)C)[C@H]1CC[C@H]2[C@@H]3CC=C4C[C@](O)(C(F)(F)F)CC[C@]4(C)[C@H]3CC[C@]12C` [Compound 3507] the figure was 241%. The same measure, in the same setting: with `C[C@H](CC[C@H](O)C(C)(C)C)[C@H]1CC[C@H]2[C@@H]3CC[C@@H]4C[C@](O)(C(F)(F)F)CC[C@]4(C)[C@H]3CC[C@]12C` [Compound 3634] the figure was 379%; with `C[C@H](CC[C@@H](O)C(C)(C)C)[C@H]1CC[C@H]2[C@@H]3CC[C@@H]4C[C@](O)(C(F)(F)F)CC[C@]4(C)[C@H]3CC[C@]12C` [Compound 3788], 410%.

`C[C@H](CC[C@]1(O)CC[C@H](C)CC1)[C@H]1CC[C@H]2[C@@H]3CC[C@H]4C[C@](O)(C(F)(F)F)CC[C@]4(C)[C@H]3CC[C@]12C` [Compound 3877] returned a maximum response (Emax) of 71.1%.

`C[C@H](CCC1(O)CCCCCC1)[C@H]1CC[C@H]2[C@@H]3CC[C@H]4C[C@](O)(C(F)(F)F)CC[C@]4(C)[C@H]3CC[C@]12C` [Compound 3983] returned a maximal response (Emax) of 300%.

For the next assay, the target named is T2, GlunN1/GluN2A glutamate receptors (Homo sapiens, UniProt Q05586+Q12879).
T2 construct: expressed in transfected cells
T2 sequence (Q12879 23-1464, other chains not shown): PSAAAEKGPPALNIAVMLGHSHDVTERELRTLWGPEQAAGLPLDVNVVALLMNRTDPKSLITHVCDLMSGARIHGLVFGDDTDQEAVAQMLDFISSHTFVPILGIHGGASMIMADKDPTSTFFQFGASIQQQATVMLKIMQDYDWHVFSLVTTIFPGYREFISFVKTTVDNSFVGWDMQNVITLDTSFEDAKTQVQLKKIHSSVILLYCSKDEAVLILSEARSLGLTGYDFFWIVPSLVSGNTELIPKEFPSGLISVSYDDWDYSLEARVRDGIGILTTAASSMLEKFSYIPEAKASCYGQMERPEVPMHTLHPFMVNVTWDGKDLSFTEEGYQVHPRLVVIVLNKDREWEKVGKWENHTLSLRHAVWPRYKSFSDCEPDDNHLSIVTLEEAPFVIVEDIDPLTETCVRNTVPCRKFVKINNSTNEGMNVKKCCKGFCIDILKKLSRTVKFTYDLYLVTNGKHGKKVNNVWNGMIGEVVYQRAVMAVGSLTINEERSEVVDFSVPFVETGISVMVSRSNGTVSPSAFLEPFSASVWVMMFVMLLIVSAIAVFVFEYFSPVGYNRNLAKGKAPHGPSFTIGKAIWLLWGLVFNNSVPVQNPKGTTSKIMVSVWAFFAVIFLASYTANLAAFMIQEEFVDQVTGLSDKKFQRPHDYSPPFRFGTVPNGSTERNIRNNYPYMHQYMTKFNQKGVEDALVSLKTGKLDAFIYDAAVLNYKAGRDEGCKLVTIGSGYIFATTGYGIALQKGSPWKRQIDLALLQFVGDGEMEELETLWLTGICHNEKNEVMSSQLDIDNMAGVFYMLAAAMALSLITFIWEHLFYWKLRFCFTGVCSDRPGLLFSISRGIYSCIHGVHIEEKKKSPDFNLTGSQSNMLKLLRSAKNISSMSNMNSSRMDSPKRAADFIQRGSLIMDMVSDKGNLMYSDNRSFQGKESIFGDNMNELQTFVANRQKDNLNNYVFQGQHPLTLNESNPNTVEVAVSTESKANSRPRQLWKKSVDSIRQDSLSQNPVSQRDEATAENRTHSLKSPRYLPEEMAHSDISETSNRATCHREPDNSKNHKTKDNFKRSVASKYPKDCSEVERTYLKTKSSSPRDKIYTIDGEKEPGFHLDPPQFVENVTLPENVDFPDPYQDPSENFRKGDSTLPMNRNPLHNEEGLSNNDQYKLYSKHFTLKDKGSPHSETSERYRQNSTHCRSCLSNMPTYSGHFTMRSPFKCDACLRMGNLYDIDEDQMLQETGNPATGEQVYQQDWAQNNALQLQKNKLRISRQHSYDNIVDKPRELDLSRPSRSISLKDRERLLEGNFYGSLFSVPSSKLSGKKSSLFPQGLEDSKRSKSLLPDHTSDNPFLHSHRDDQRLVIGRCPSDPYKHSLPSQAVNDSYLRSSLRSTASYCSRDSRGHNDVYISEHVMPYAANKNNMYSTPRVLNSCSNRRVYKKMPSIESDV
The assay is described as follows: Whole-cell patch clamp of mammalian cells (Ionworks Barracuda), positive allosteric modulation (PAM) of NMDA receptor, 2A. The format is cell-based. The note with it: HEK293, HEK293 cells; % activation of current elicited with EC20 L-glutamate and 30 µM glycine. The procedure: as §1, §2, §3, §4
The molecule `C[C@H](CC[C@H](O)C(C)(C)C)[C@H]1CC[C@H]2[C@@H]3CC[C@H]4C[C@](O)(C(F)(F)F)CC[C@]4(C)[C@H]3CC[C@]12C` [Compound 2184] came in with a maximal effect (Emax) of 234%. Molecule `C[C@H](CCC1(O)CCC(F)(F)CC1)[C@H]1CC[C@H]2[C@@H]3CC=C4C[C@](O)(C(F)(F)F)CC[C@]4(C)[C@H]3CC[C@]12C` [Compound 2392] registered a maximum response (Emax) of 230%.

`C[C@H](CCC(O)C(C)(C)C)[C@H]1CC[C@H]2[C@@H]3CC=C4C[C@](O)(C(F)(F)F)CC[C@]4(C)[C@H]3CC[C@]12C` (some centres unmarked) [Compound 2500] displayed an Emax of 303%.

Turning to `C[C@H](CC[C@](C)(O)C(F)(F)F)[C@H]1CC[C@H]2[C@@H]3CC=C4C[C@](O)(C(F)(F)F)CC[C@]4(C)[C@H]3CC[C@]12C` [Compound 3035], the Emax was 323%. `C[C@H](CC[C@@H](O)C(F)(F)F)[C@H]1CC[C@H]2[C@@H]3CC=C4C[C@](O)(C(F)(F)F)CC[C@]4(C)[C@H]3CC[C@]12C` [Compound 3149] showed a maximal response (Emax) of 292%.

In turn, `C[C@H](CC[C@@H](O)C(C)(C)C)[C@H]1CC[C@H]2[C@@H]3CC=C4C[C@](O)(C(F)(F)F)CC[C@]4(C)[C@H]3CC[C@]12C` [Compound 3382] registered a maximal effect (Emax) of 309%. Same read-out and setting: with `C[C@H](CC[C@]1(O)CCOC1)[C@H]1CC[C@H]2[C@@H]3CC=C4C[C@](O)(C(F)(F)F)CC[C@]4(C)[C@H]3CC[C@]12C` [Compound 3496] the figure was 319%; with `C[C@H](CC[C@H](O)C(C)(C)C)[C@H]1CC[C@H]2[C@@H]3CC=C4C[C@](O)(C(F)(F)F)CC[C@]4(C)[C@H]3CC[C@]12C` [Compound 3507], 166%; with `C[C@H](CC[C@H](O)C(C)(C)C)[C@H]1CC[C@H]2[C@@H]3CC[C@@H]4C[C@](O)(C(F)(F)F)CC[C@]4(C)[C@H]3CC[C@]12C` [Compound 3634], 221%.

Regarding `C[C@H](CC[C@@H](O)C(C)(C)C)[C@H]1CC[C@H]2[C@@H]3CC[C@@H]4C[C@](O)(C(F)(F)F)CC[C@]4(C)[C@H]3CC[C@]12C` [Compound 3788], the Emax was determined as 229%. The same measure, in the same setting: with `C[C@H](CC[C@]1(O)CC[C@H](C)CC1)[C@H]1CC[C@H]2[C@@H]3CC[C@H]4C[C@](O)(C(F)(F)F)CC[C@]4(C)[C@H]3CC[C@]12C` [Compound 3877] the figure was 42.4%; with `C[C@H](CCC1(O)CCCCCC1)[C@H]1CC[C@H]2[C@@H]3CC[C@H]4C[C@](O)(C(F)(F)F)CC[C@]4(C)[C@H]3CC[C@]12C` [Compound 3983], 176%.

Staying with this assay, now noted: HEK293 cells; co-application with EC20 L-glutamate and 30 µM glycine; 8-point concentration-response.
Take `CC[C@]1(O)CC[C@@]2(C)[C@@H](CC[C@@H]3[C@@H]2CC[C@]2(C)[C@@H]([C@H](C)CC[C@@H](O)c4ccccn4)CC[C@@H]32)C1` [Compound 7030]: the half-maximal effective concentration (EC50) was > 10 µM. Still for that read-out and setting: with `CC[C@]1(O)CC[C@@]2(C)[C@@H](CC[C@@H]3[C@@H]2CC[C@]2(C)[C@@H]([C@H](C)CC[C@H](O)c4ccccn4)CC[C@@H]32)C1` [Compound 7032] the figure was > 10 µM.
